The results in this text go back to PubChem BioAssay (NCI).

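Values below derive from 48-hour exposures of cells grown in 96-well plates, with endpoints linearly interpolated between the two concentrations bracketing the appropriate inhibition level. The concentration for 50% growth inhibition is given as GI50. TGI is the concentration that stops growth completely.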 Some results are limits rather than exact numbers.

Common to all, as to experiment: inhibition of tumour cell growth, NCI panel, 48 h
Assay [1] has as its system 786-0 renal.
The subject of assay [2] is CCRF-CEM leukemia.
Assay [3] has as its system HL-60(TB) leukemia.
In assay [4] the test system is K-562 leukemia.
Assay [5] concerns MALME-3M melanoma.
The test system of assay [6] is MCF7 breast.
The test system of assay [7] is NCI-H522 lung.
The test system of assay [8] is NCI/ADR-RES ovarian.
For assay [9], the system named is SNB-19 CNS.
Assay [10] has as its system UO-31 renal.

As for `CC(=O)OC1C(O)C(C)OC(OC2C(OC(=O)C3CCC4C(C3)OC3(CC(OC(=O)/C=C/c5ccccc5)C(C)CO3)C43CO3)OC(C)C(O)C2OC(C)=O)C1O` (centres undefined), the TGI is 0.132 µM in [1]; 0.084 µM in assay [2]; 0.0192 µM in [3]; 0.241 µM in assay [4]; less than 0.0185 µM in assay [5]; 0.0825 µM in assay [6]. Besides, the TGI was 0.0156 µM in assay [7], more than 2.5 µM in assay [8], 0.0316 µM in assay [9] and 1.6 µM in [10].
Take `Cc1cc(O)ccc1C1(c2ccc(O)cc2C)OC(=O)c2ccccc21`: the GI50 in assay [1] is 16.8 µM; in assay [2], 24.4 µM; in assay [3], 22.8 µM; in assay [4], 28 µM; in assay [5], 17.9 µM; in assay [6], 18.1 µM. For the same molecule, the GI50 in [7] is 18.5 µM; in assay [8], 21.1 µM; in [9], 18.7 µM; in [10] it was 18.1 µM. Besides, the TGI in assay [1] is 34 µM; in assay [2], 67.7 µM; in assay [3], 64.2 µM; in assay [4], more than 100 µM; in assay [5], 37.9 µM; in assay [6], 36.5 µM. Further, the TGI in [7] came to 35 µM; in [8], 49.6 µM; in [9] it was 35.2 µM; in assay [10], 36.7 µM.
With `CC(=O)Oc1ccc(C2OC(c3ccc4ccccc4c3OC(C)=O)=NN2C(C)=O)c(OC(C)=O)c1` (centres undefined), the GI50 was 0.479 µM in assay [1]; 0.32 µM in assay [2]; 0.267 µM in [3]; 0.402 µM in [4]; 0.407 µM in assay [5]; 0.413 µM in assay [6]. The GI50 is 0.369 µM in assay [7], 0.394 µM in assay [8], 0.56 µM in [9] and 0.146 µM in [10]. For the same molecule, the TGI in assay [1] is more than 77.2 µM; in assay [2] it was more than 100 µM; in [3], 4.82 µM; in [4] it was more than 48.6 µM; in [5] it was 5.12 µM; in assay [6], more than 38.6 µM. Also, the TGI in assay [7] is 6.22 µM; in [8], more than 74.1 µM; in assay [9] it was more than 100 µM; in [10], 3.14 µM.
In the case of `NS(=O)(=O)c1ccc(N=Nc2c(O)[nH]c3ccc(C(=O)NCCCn4ccnc4)cc23)cc1`, the GI50 was more than 25 µM in assay [1]; more than 18.5 µM in [2]; more than 25 µM in [3]; more than 25 µM in assay [4]; more than 25 µM in assay [5]; more than 25 µM in [6]. Also, the GI50 in [7], in assay [8], in assay [9] and in assay [10] was more than 25 µM in each case. Further, the TGI in assay [1], in assay [2], in assay [3], in assay [4], in assay [5] and in assay [6] was more than 25 µM throughout. Further, the TGI in assay [7], in assay [8], in assay [9] and in assay [10] was more than 25 µM in each case.
For `O=C(O)c1ccc(CSc2nc3ccccc3[nH]2)cc1`, the GI50 in assay [1], in [2], in assay [3], in [4], in assay [5] and in [6] was more than 100 µM in each case. The GI50 in assay [7], in assay [8], in assay [9] and in assay [10] was more than 100 µM in each case. Moreover, the TGI in assay [1], in assay [2], in assay [3], in assay [4], in assay [5] and in assay [6] was more than 100 µM throughout. The TGI in [7], in [8], in [9] and in assay [10] was more than 100 µM in each case.
For `CC(C)c1cnc(-c2cc(Cl)ccc2F)cc1Nc1ccncc1C(=O)NC(CO)CO`, the GI50 in [1] was 14.1 µM; in assay [2], 11.6 µM; in [3], 20.1 µM; in [4] it was 12.3 µM; in assay [5], 17.2 µM; in assay [6], 11.6 µM. The GI50 in assay [7] is 13 µM; in assay [8], 20.8 µM; in assay [9], 15.6 µM; in assay [10], 2.87 µM. In addition, the TGI in [1] stood at 37.1 µM; in [2], 54.2 µM; in assay [3], 60.7 µM; in [4], 46.5 µM; in assay [5], 34.4 µM; in assay [6], 27.3 µM. Besides, the TGI in [7] came to 30.4 µM; in assay [8], 63.2 µM; in assay [9], 54 µM; in assay [10], 21.9 µM.
Turning to `CS(=O)(=O)Nc1cc(-c2ccc3ncc(C#N)c(Nc4ccc(F)c(Cl)c4)c3c2)cnc1Cl`, the GI50 in assay [1] was 0.256 µM; in assay [2], 0.0911 µM; in assay [3] it was 0.12 µM; in assay [4], 0.201 µM; in assay [5], 0.0354 µM; in assay [6], 0.0946 µM. Moreover, the GI50 in [7] was 0.113 µM; in assay [8], 0.633 µM; in assay [9], 0.212 µM; in assay [10] it was 0.125 µM. Also, the TGI in assay [2] was more than 31 µM; in [3], 0.741 µM; in [4], more than 100 µM; in assay [5], 0.278 µM; in [6], more than 100 µM; in assay [7] it was 1.46 µM. Besides, the TGI was more than 100 µM in [8], 1.64 µM in assay [9] and 1.03 µM in assay [10].
On to `CCc1ccc(Oc2c(-c3ccc(OCCc4cccc(C(F)(F)F)c4)cc3O)n[nH]c2C(F)(F)F)cc1`, for which the GI50 in assay [1] was 6.38 µM; in assay [2], 2.55 µM; in assay [3] it was 5.2 µM; in assay [4] it was 1.8 µM; in assay [5], 5.42 µM; in [6] it was 2.24 µM. For the same molecule, the GI50 in assay [7] was 1.88 µM; in assay [8], 5.19 µM; in assay [9], 2.69 µM; in assay [10], 2.07 µM. Also, the TGI in [1] worked out at 12.9 µM; in assay [2], 9.18 µM; in assay [3] it was 12.9 µM; in [4] it was 6.1 µM; in assay [5] it was 11.8 µM; in assay [6], 7.82 µM. The TGI in [7] worked out at 5.77 µM; in [8] it was 11.9 µM; in [9], 9.03 µM; in [10], 8.08 µM.
As to `COc1ccc2[nH]c(C(=O)OCc3ccc4c(Br)cc(Br)c(O)c4n3)cc2c1`, the GI50 was 1.23 µM in assay [1]; 0.331 µM in [2]; 0.7 µM in [3]; 0.495 µM in assay [4]; 1.45 µM in [5]; 0.442 µM in assay [6]. The GI50 was 0.395 µM in [7], 1.68 µM in [8], 1.5 µM in [9] and 0.36 µM in assay [10]. Besides, the TGI in assay [1] is 2.61 µM; in [2], more than 100 µM; in [3] it was 3.41 µM; in [4] it was 4.94 µM; in assay [5], 2.85 µM; in assay [6], 2.05 µM. The TGI in assay [7] came out at 1.82 µM; in assay [8], 7.3 µM; in assay [9] it was 2.89 µM; in [10], 1.85 µM.
With `COc1ccc(OC)c(C2=C(c3cn(C)c4ccccc34)C(=O)NC2=O)c1`, the GI50 in [1] is more than 25 µM; in assay [2], more than 25 µM; in [3], more than 18.8 µM; in assay [4], 17.1 µM; in [5], more than 25 µM; in [6] it was more than 20.7 µM. Moreover, the GI50 in assay [7], in assay [8], in assay [9] and in [10] was more than 25 µM throughout. Besides, the TGI in assay [1], in assay [2], in [3], in assay [4], in assay [5] and in [6] was more than 25 µM each time. The TGI in assay [7], in [8], in assay [9] and in assay [10] was more than 25 µM each time.
With `Nc1c(C(=O)Nc2cccc(Cl)c2)sc2nc3c(cc12)C(O)CCC3` (centres undefined), the GI50 in assay [1] was 0.66 µM; in assay [2], 0.31 µM; in assay [3], 0.234 µM; in assay [4], 0.207 µM; in assay [5], 0.485 µM; in assay [6] it was 0.344 µM. For the same molecule, the GI50 in [7] was 0.434 µM; in assay [8], 0.583 µM; in assay [9] it was 4.35 µM; in [10], 1.1 µM. The TGI in [1] was 20.4 µM; in assay [2], 17.3 µM; in assay [3] it was 0.821 µM; in assay [4] it was 22.9 µM; in assay [5], 33.3 µM; in [6] it was 53.4 µM. For the same molecule, the TGI was 23.6 µM in assay [7], more than 100 µM in assay [8], 99.4 µM in assay [9] and 26.8 µM in assay [10].
In the case of `CCN1CCN(Cc2ccc(Nc3ncc(F)c(-c4cc(F)c5nc(C)n(C(C)C)c5c4)n3)nc2)CC1`, the GI50 in assay [1] was 4.74 µM; in assay [2], 1.14 µM; in [3], 2.82 µM; in assay [4], 5.85 µM; in assay [5], 0.0557 µM; in assay [6], 0.0241 µM. Further, the GI50 is 8.92 µM in [7], 10.4 µM in assay [8], 5.48 µM in assay [9] and 0.139 µM in [10]. Further, the TGI in assay [1] was found to be 13.2 µM; in assay [2], 15 µM; in [3] it was 13.2 µM; in assay [4] it was 21 µM; in [5], 10.5 µM; in assay [6], 10.4 µM. In addition, the TGI is 18.1 µM in assay [7], 26.2 µM in assay [8], 12.4 µM in [9] and 7.26 µM in assay [10].
Consider `COc1ccccc1CNCCCN1C(=O)c2ccc3c4c(ccc(c24)C1=O)C(=O)N(CCCNCCCCNCCCN)C3=O`, for which the GI50 in [1] is 1.03 µM; in assay [2], 0.425 µM; in assay [3] it was 0.409 µM; in [4] it was 0.302 µM; in [5] it was 0.241 µM; in assay [6], 0.2 µM. Moreover, the GI50 is 0.176 µM in assay [7], 2.02 µM in assay [8], 0.574 µM in [9] and 2.66 µM in [10]. Also, the TGI in assay [1] was 3.78 µM; in assay [2] it was 19.9 µM; in assay [3], 1.69 µM; in [4], 7.05 µM; in [5], 0.546 µM; in [6] it was 0.466 µM. Moreover, the TGI in assay [7] is 0.362 µM; in assay [8], 7.7 µM; in assay [9], 3.97 µM; in assay [10] it was 16.2 µM.
For `Cc1nc2ccc(-n3ncc(C(=O)c4cc5ccccc5[nH]4)c3N)cc2[nH]1`, the GI50 is 9.44 µM in assay [1]; 9.24 µM in assay [2]; 11.9 µM in assay [3]; 3.07 µM in [4]; 13.9 µM in assay [5]; 4.52 µM in [6]. The GI50 was 10.1 µM in [7], 11.9 µM in assay [8], 15.4 µM in [9] and 10 µM in assay [10]. The TGI in assay [1] is 69.4 µM; in assay [2], 96 µM; in assay [3] it was 45.9 µM; in assay [4], more than 100 µM; in [5], 83.1 µM; in [6], more than 100 µM. Also, the TGI is 33.3 µM in assay [7], 80.2 µM in assay [8], more than 100 µM in [9] and 33.2 µM in assay [10].
With `COc1cc(/C=C2\CCC/C(=C\c3cc(CN4CCCC4)c(O)c(OC)c3)C2=O)cc(CN2CCCC2)c1O`, the GI50 is 3.15 µM in [1]; 2.71 µM in assay [2]; 2.15 µM in assay [3]; 3 µM in assay [4]; 2.73 µM in assay [5]; 4.82 µM in assay [6]. In addition, the GI50 was 2.5 µM in assay [7], 3.47 µM in [8], 8.21 µM in assay [9] and 10.1 µM in [10]. Besides, the TGI in assay [1] was 14.7 µM; in assay [2], 8.37 µM; in assay [3] it was 5.75 µM; in assay [4] it was 16.9 µM; in assay [5], 6.41 µM; in assay [6], 23.6 µM. The TGI is 7.92 µM in assay [7], more than 100 µM in assay [8], 20.8 µM in [9] and 21.7 µM in assay [10].
